The source made the active and inactive calls. The rule behind the calls is not given here.
Assays:
[1] = molecular target: T1, TRAF2 and NCK-interacting protein kinase (Homo sapiens, UniProt Q9UKE5); experiment: Inhibition of TNIK (unknown origin)
Target sequence in this assay (Q9UKE5 whole entry): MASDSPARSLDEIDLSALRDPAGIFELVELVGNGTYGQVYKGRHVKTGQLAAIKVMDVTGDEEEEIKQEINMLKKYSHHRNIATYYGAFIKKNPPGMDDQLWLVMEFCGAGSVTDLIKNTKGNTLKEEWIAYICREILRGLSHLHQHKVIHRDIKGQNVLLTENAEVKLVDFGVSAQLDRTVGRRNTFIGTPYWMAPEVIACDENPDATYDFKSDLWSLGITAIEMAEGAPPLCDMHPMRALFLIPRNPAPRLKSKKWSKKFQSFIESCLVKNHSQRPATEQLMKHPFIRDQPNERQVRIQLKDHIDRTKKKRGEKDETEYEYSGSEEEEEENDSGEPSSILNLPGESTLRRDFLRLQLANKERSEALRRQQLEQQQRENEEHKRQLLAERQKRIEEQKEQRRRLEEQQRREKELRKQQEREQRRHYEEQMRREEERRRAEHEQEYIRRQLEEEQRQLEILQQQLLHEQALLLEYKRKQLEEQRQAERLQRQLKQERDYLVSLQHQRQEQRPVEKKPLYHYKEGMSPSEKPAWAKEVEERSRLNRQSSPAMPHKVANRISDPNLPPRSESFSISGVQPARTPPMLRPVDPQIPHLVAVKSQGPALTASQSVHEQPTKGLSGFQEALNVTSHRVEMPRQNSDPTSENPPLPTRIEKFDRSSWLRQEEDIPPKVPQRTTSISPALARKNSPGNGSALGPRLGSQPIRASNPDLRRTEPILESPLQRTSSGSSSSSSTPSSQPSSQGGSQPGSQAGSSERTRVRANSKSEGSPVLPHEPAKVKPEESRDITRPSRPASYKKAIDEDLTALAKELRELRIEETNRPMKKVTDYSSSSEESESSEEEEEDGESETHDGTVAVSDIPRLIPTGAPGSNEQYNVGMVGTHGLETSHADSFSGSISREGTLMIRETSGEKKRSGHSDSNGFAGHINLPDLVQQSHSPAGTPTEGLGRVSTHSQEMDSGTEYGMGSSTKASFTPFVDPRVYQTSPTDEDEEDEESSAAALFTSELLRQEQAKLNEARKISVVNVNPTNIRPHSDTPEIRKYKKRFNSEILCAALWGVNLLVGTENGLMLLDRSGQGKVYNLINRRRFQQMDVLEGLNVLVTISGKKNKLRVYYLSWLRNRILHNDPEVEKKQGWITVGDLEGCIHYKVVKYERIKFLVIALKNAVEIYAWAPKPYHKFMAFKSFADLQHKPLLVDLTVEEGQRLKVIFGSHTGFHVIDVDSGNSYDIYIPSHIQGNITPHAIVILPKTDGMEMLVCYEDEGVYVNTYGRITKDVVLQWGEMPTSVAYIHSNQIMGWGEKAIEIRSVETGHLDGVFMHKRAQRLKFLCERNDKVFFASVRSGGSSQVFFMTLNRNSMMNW

[2] = molecular target: T1, TRAF2 and NCK-interacting protein kinase; experiment: Inhibition of TNIK in human Jurkat cells assessed as reduction in PMA/anti-CD3 antibody-induced IL2 level incubated for 24 hrs by ELISA; type: cell-based; conditions: dose 1-10 µM
Target sequence in this assay (Q9UKE5 whole entry, looked up): as the sequence (Q9UKE5 whole entry) above

[3] = molecular target: T1, TRAF2 and NCK-interacting protein kinase; experiment: Inhibition of TNIK in PMA/anti-CD3 antibody-stimulated human Jurkat cells assessed as IL2 level at 10 uM incubated for 24 hrs by ELISA; type: cell-based
Target sequence in this assay (Q9UKE5 whole entry, looked up): as the sequence (Q9UKE5 whole entry) above

[4] = molecular target: T1, TRAF2 and NCK-interacting protein kinase; experiment: Inhibition of TNIK in human Jurkat cells assessed as reduction in PMA/anti-CD3 antibody-induced IL2 secretion at 1 uM incubated for 24 hrs by ELISA; type: cell-based
Target sequence in this assay (Q9UKE5 whole entry, looked up): as the sequence (Q9UKE5 whole entry) above

Row | Compound | IC50 [1] [nM] | also measured
1 | CN1CCN(Cc2ccc(-c3cnc4[nH]cc(-c5cc(C#N)c(Cl)c(NS(C)(=O)=O)c5)c4c3)cc2)CC1 | 0.43 | inhibition [2]: Dose-dependent effect
2 | CN1CCN(Cc2ccc(-c3cnc4[nH]cc(-c5ccc6[nH]ncc6c5)c4c3)cc2)CC1 | 0.44 | –
3 | Cn1cc(-c2ccc(-c3cnc4[nH]cc(-c5cc(C#N)cc(NS(C)(=O)=O)c5)c4c3)cc2)cn1 | 0.8 | –
4 | CN1CCN(Cc2ccc(-c3cnc4[nH]cc(-c5cccc(NS(C)(=O)=O)c5)c4c3)cc2)CC1 | 7.1 | –
5 | CN1CCC(n2cc(-c3cnc4[nH]cc(-c5cc(C#N)c(Cl)c(NS(C)(=O)=O)c5)c4c3)cn2)CC1 | 0.68 | Activity [3]: < 25 pg/mL; inhibition [2]: Dose-dependent effect
6 | CS(=O)(=O)Nc1cc(C#N)cc(-c2c[nH]c3ncc(-c4cccc(C(=O)N5CCCC5)c4)cc23)c1 | 0.21 | –
7 | CC(=O)Nc1cccc(-c2c[nH]c3ncc(-c4ccc(CN5CCN(C)CC5)cc4)cc23)c1 | 12 | –
8 | CS(=O)(=O)Nc1cc(C#N)cc(-c2c[nH]c3ncc(-c4cccc(C(=O)NC5CC5)c4)cc23)c1 | 0.12 | –
9 | CN1CCN(C(=O)c2ccc(-c3cnc4[nH]cc(-c5cc(C#N)cc(NS(C)(=O)=O)c5)c4c3)cc2)CC1 | 0.21 | –
10 | CC(C)(Oc1ccc(-c2cnc3[nH]cc(-c4cc(C#N)cc(NS(C)(=O)=O)c4)c3c2)cc1)C(=O)O | 0.33 | inhibition [2]: Dose-dependent effect
11 | CN1CCN(Cc2ccc(-c3cnc4[nH]cc(-c5cccc(N)c5)c4c3)cc2)CC1 | 15 | –
12 | CNC(=O)c1cccc(-c2cnc3[nH]cc(-c4cc(C#N)c(Cl)c(NS(C)(=O)=O)c4)c3c2)c1 | 0.3 | –
13 | CN1CCN(Cc2ccc(-c3cnc4[nH]cc(-c5cc(C#N)cc(NS(C)(=O)=O)c5)c4c3)cc2)CC1 | 0.13 | Activity [3]: < 25 pg/mL; inhibition [2]: Dose-dependent effect
14 | CN1CCN(Cc2ccc(-c3cnc4[nH]cc(-c5ccc(F)cc5)c4c3)cc2)CC1 | 19 | –
15 | CN1CCN(C(=O)c2cccc(-c3cnc4[nH]cc(-c5cc(C#N)cc(NS(C)(=O)=O)c5)c4c3)c2)CC1 | 0.25 | –
16 | CN1CCN(Cc2ccc(-c3cnc4[nH]cc(-c5cccc(C#N)c5)c4c3)cc2)CC1 | 0.91 | –

Row | Compound | IC50 [1] [nM] | also measured
17 | c1ccc(-c2cnc3[nH]cc(-c4ccccc4)c3c2)cc1 | 9.2 | –
18 | CC(C)(C(=O)O)c1ccc(-c2cnc3[nH]cc(-c4cc(C#N)cc(NS(C)(=O)=O)c4)c3c2)cc1 | 0.47 | inhibition [2]: Dose-dependent effect
19 | CN1CCN(Cc2ccc(-c3cnc4[nH]cc(-c5ccccc5)c4c3)cc2)CC1 | 14 | –
20 | CN(C)C1CCN(C(=O)c2cccc(-c3cnc4[nH]cc(-c5cc(C#N)cc(NS(C)(=O)=O)c5)c4c3)c2)C1 (stereo not drawn) | 0.22 | –
21 | CS(=O)(=O)Nc1cc(C#N)cc(-c2c[nH]c3ncc(-c4cccc(C(=O)N5CCCCC5)c4)cc23)c1 | 0.22 | –
22 | CN1CCN(Cc2ccc(-c3cnc4[nH]cc(-c5cnc6[nH]ncc6c5)c4c3)cc2)CC1 | 7.9 | –
23 | CNC(=O)c1cccc(-c2cnc3[nH]cc(-c4cc(C#N)cc(NS(C)(=O)=O)c4)c3c2)c1 | 0.18 | –
24 | CNC(=O)c1cccc(-c2c[nH]c3ncc(-c4ccc(CN5CCN(C)CC5)cc4)cc23)c1 | 27 | –
25 | CN1CCN(Cc2ccc(-c3cnc4[nH]cc(-c5ccc6[nH]cnc6c5)c4c3)cc2)CC1 | 3.8 | –
26 | CN1CCN(Cc2ccc(-c3cnc4[nH]cc(-c5cc(C#N)cc(NS(=O)(=O)C6CC6)c5)c4c3)cc2)CC1 | 0.19 | Activity [3]: < 25 pg/mL; inhibition [2]: Dose-dependent effect
27 | CN1CCN(Cc2ccc(-c3cnc4[nH]cc(-c5ccc(NS(C)(=O)=O)cc5)c4c3)cc2)CC1 | 18 | –
28 | CN1CCN(Cc2ccc(-c3cnc4[nH]cc(-c5ccc6[nH]ccc6c5)c4c3)cc2)CC1 | 5.2 | –
29 | CN1CCN(Cc2ccc(-c3cnc4[nH]cc(-c5cccc(C(=O)N(C)C)c5)c4c3)cc2)CC1 | 43 | –
30 | CN1CCN(Cc2ccc(-c3cnc4[nH]cc(-c5cc(C#N)c6[nH]ncc6c5)c4c3)cc2)CC1 | 0.23 | Activity [3]: < 25 pg/mL; inhibition [4]: inactive
31 | CN1CCN(Cc2ccc(-c3cnc4[nH]cc(-c5cccc6ccccc56)c4c3)cc2)CC1 | 31 | –
32 | CN1CCN(Cc2ccc(-c3cnc4[nH]cc(-c5ccc(Cl)cc5)c4c3)cc2)CC1 | 14 | –

Reference: ChEMBL document CHEMBL4673375, “Discovery of a series of 1H-pyrrolo[2,3-b]pyridine compounds as potent TNIK inhibitors” (Bioorg Med Chem Lett, 2021)
